Assay results: patent US6680295B1, “Method and pharmaceutical composition for prevention and treatment of brain damage” (priority 1994, dated 2004)
No end group written: not given here.

Assays:
[1] = target: T1, PACAP binding sites in rat brain membrane preparations (Rattus norvegicus, UniProt P32215); experiment: Radioreceptor assay: displacement of 125I-PACAP27 binding to E18 rat brain membranes; conditions: for displacement of 125I-PACAP27 binding: unlabeled peptide
T1 construct: from tissue; host or cells: rat brain membrane preparations (E18 whole brain; other ages and regions also dissected)
T1 sequence (P32215 20-523): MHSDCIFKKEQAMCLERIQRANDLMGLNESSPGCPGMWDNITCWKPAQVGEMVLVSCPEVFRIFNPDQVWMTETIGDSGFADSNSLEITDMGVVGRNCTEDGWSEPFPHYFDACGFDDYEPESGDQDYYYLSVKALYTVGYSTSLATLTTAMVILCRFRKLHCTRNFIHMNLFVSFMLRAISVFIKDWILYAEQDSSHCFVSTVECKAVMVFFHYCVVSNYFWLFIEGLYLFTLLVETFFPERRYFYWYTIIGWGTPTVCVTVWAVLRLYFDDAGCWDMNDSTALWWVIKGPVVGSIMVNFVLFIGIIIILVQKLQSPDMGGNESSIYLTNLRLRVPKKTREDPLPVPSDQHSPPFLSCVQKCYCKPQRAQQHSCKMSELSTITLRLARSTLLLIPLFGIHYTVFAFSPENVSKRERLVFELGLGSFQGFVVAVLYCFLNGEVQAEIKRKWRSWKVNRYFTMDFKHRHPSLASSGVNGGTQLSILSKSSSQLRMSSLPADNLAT
Description: Male CD rats (Charles River Breeding Labs., Wilmington, Mass.) were used throughout this example. The following regions of the brain were dissected at the indicated ages: embryonic day E14 (whole brain); E18 (whole brain, neocortex, hippocampus, and diencephalon); postnatal days P0, P7 and P14 (whole brain, neocortex, hippocampus, diencephalon, and cerebellum); and 1-, 2- and 3-months old (MO) (whole brain, neocortex, hippocampus, diencephalon, and cerebellum). After dissection, each region was immediately frozen on dry-ice and stored at −70 C. for up to 2 months until the receptor and peptide levels were determined. […] Arimura, et al., Endocrinology 129: 2787-2789 (1991). […] Gottschall, et al., Endocrinology 127: 272-277 (1990), and Gottschall, et al., FASEB J 5: 194-199 (1991).
Gottschall, et al., Endocrinology 127: 272-277 (1990) and Gottschall, et al., FASEB J 5: 194-199.

[2] = system: dissociated hippocampal cultures; conditions: cited from earlier work
[3] = system: cultured rat neurons, intracellular cAMP; experiment: cAMP response in cultured rat neurons (RIA); type: cell-based; conditions: neuron cultures
Experimental: Neuron cultures were prepared from brains of 1 day-old rats. 1×10^7 cells were plated in each dish (35 mm diameter).
(§1) Yada, et al., J. Biol. Chem. 269: 1290-1293 (1994).

[4] = system: cultured rat astrocytes, intracellular cAMP; experiment: cAMP response in cultured rat astrocytes (RIA); type: cell-based; conditions: astrocyte cultures
Experimental: Astrocytes cultures were prepared from brain of neonatal rats. Astrocytes were allowed to proliferate for 7-10 days before experiments.
as §1

Type I PACAP receptor = target: T2, Type I PACAP receptor (Homo sapiens, UniProt P41586); conditions: cited from earlier work
T2 sequence (P41586 21-468): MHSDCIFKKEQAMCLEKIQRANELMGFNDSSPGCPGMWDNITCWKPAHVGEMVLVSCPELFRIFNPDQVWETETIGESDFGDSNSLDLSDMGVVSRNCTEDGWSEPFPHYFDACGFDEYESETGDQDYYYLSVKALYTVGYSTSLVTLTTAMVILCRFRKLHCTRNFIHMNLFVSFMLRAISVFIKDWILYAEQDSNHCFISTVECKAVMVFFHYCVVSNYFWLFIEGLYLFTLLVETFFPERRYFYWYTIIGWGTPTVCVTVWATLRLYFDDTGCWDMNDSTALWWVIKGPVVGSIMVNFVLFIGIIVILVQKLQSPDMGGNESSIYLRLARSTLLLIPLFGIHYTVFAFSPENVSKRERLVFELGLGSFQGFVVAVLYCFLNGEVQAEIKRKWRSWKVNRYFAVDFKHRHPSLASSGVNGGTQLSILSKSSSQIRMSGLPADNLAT

CNS cultures, cAMP = experiment: cAMP in CNS cultures at the peptide concentrations that increase neuronal survival; type: cell-based; conditions: 0.1 nM, any CNS culture system
[5] = rat, in vivo
Experimental: FIG. 15 is a graph showing ^125I -PACAP 38 levels in brain tissue 10 minutes after icv injection, at 1×10^6 cpm ^125I-PACAP38.
This calculation was based on the transport of ^125I-labelled peptide given icv as a bolus but slow injection over 5 min. 1×10^6 cpm ^125I-PACAP38 was injected icv in anesthetized rats, the cpm in the brain tissues 10 min after the injection is shown in FIG. 15.
The labelled peptide was injected into the right lateral ventricle.

hippocampal CA1 neurons [6] = experiment: Forebrain ischemia, hippocampal CA1 neuronal cell death, iv infusion started immediately after ischemia; type: in vivo, rat
Experimental: (§2) The clips were removed 15 minutes later. […] The incision wound was closed.
PACAP38 was administered i.v. to rats (see example 5) over one week, starting immediately after ischemia/reperfusion. […] In this experiment, 20 μg/kg (approximately 4 nmol/kg) was given as a bolus iv injection before the infusion began.

[7] = system: dorsomedial population of dorsal root ganglia (DRG18); experiment: Natural neuronal cell death in dorsal root ganglion DRG18 of chick embryo; conditions: 25 nM in the egg daily E3 1/2 to E8 1/2, counted on E9, p<0.01
Experimental: The control group received vehicle and the experimental group received PACAP38 (25 nM in the egg) daily from E3 ½ to E8 ½. Number is the mean of the numbers of degenerating cells in 6 ganglia in each group. Bar indicates SEM.
Effect of PACAP on natural neuronal cell death was also examined in chick embryos using similar experimental procedures described by Hamburger and Montalcini. […] Fertilized White Leghorn eggs (Troslow Farms) were incubated at 39 C. at 99% humidity. A small hole was opened at the top of the egg on E3 ½ (Stage 23) by punching with micro-dissecting tweezers. One μl/g of egg weight of sterile Tyrode solution or solution containing 5 μM or 25 μM PACAP38 was administered daily through the hole onto the highly vascularized chorioallantoic membrane from day E3 ½ through E8 ½ in the experiment for dorsal root ganglion (DRG), and from E6 through E9 for lumbar motor column (LMC). […]
The magnification used (×400), one can observe DRG18 divided into two populations of cells: large differentiating ventrolateral (VL) and small, late differentiating dorsomedial (DM) cells. […] Macrophages containing debris of several cells were encountered rarely and counted as two degenerating cells. Every second section of the ganglia was counted, and the sum multiplied by two to obtain a data point. A total of 6 ganglia were counted in each of the control and experimental groups, respectively.

[8] = system: motoneurons in the lateral motor column (LMC); experiment: Survival of motoneurons in lumbar lateral motor column of chick embryo
Experimental: Embryos received vehicle, or 5 nM or 25 nM PACAP (concentrations in the egg after injection) daily from E6 to E9. Average LMC is represented by 320-340 sections and cell counts were made on every tenth section. Sum of live cells in all counted sections multiplied by 10 is shown in this figure. Numbers indicate mean numbers of live cells in 6 LMC in each group. Bars indicate SME.
Effect of PACAP on natural neuronal cell death was also examined in chick embryos using similar experimental procedures described by Hamburger and Montalcini. […] Fertilized White Leghorn eggs (Troslow Farms) were incubated at 39 C. at 99% humidity. A small hole was opened at the top of the egg on E3 ½ (Stage 23) by punching with micro-dissecting tweezers. […]
In the lumbar motor column (LMC), intact motoneurons were easily distinguishable from surrounding cells due to their large size and deeply stained perikaryon. Only those neurons with an intact nuclear membrane and at least one visible nucleolus were counted as live cells. Every tenth section of the LMC was counted, and the sum of the sections multiplied by ten to obtain a data point. A total of 6 motor columns was counted in each of the control and experimental groups.

hippocampal CA1 neurons [9] = experiment: Forebrain ischemia, hippocampal CA1 neuronal cell death, iv infusion started 24 hrs after ischemia; type: in vivo, rat; conditions: bolus and infusion started 24 hrs after ischemia
Experimental: FIG. 18 is a graph showing the cytoprotective effect of iv infusion of PACAP38 which started 24 hrs. after ischemia in rats.
as §2
Neuronal cell death in CA1 induced by forebrain ischemia progresses slowly. One day after ischemia/reperfusion many viable neurons were still seen in CA1. However, nearly all neurons died one week after ischemia. Therefore, if the administration of PACAP38 is started 24 hrs after ischemia, the treatment could possibly still prevent the slow death of the neurons. To test this hypothesis, a bolus iv injection and subsequent iv infusion of PACAP38 was started 24 hrs after ischemia.

[10] = system: dissociated hippocampal cultures; experiment: Prevention of gp120-induced neuronal cell death in dissociated hippocampal cultures; type: cell-based, mice; conditions: 1 pM gp120, five days
Experimental: The cultures were prepared from 16-17 day-old mice embryos (C57B1/6) as previously described. Brenneman, et al., Nature 335: 639-642 (1988). Before treatment, the cultures were given a complete change of medium. […] Cell counts were conducted on 60 fields, 0.12 mm^2 each. Neurons were identified immunocytochemically using antiserum against neuron specific enolase. Schmechel, et al., Nature 276: 834-836 (1978). Each value is the mean of 3-5 dishes.
Brenneman, et al. Nature 335: 639-642 (1988). […] Brenneman, et al. Nature 335: 639-642 (1988). […] Arimura, et al., Trends Endocr. Metab. 3: 288-294 (1993). Arimura et al., Ann NY Acad. Sci. 739:228-243 (1994).

hippocampal CA1 neurons [11] = experiment: Forebrain ischemia/reperfusion (four vessel occlusion), hippocampal CA1 neuronal cell death, icv administration
Experimental: Each column indicates viable cell number 7 days after 15 min ischemia of the forebrain of rats which were intracerebroventricularly administered the vehicle alone or the vehicle containing varying amounts of PACAP38. The numbers of cells are expressed by percentages of live cells as compared with the cells in the same area of the intact rat hippocampus. […] FIGS. 13A-F are microphotographs of coronal sections of the right hippocampal CA1 from intact rats and rats subjected to forebrain ischemia for 15 min. The sections were stained with cresyl violet (A, B, C) and immunostained for MAPII (D, E, F). A, D: Intact rats. B, E: 7 days after ischemia in vehicle-infused (icv) rats. […] PACAP38 administration started immediately after ischemia.
Adult male rats of CD strain weighing 270-300 g body weight (Charles River Breeding labs, Wilmington, Miss.) were used. Under Ketamine anesthesia, the bilateral vertebrate arteries were permanently occluded at the first cervical vertebra by electrocoagulation. Bilateral carotid arteries were exposed and a loop of silicon rubber tubing was placed around each carotid artery, leaving the end of the tubing outside the suture. The animal was left in the laboratory with water, but without food. The following morning, both loops around the carotid arteries were pulled and artery clips were applied on the loops at the portion close to the skin so that both carotid arteries were occluded and ischemia of the brain occurred as long as the clips remained. The clips were removed 15 minutes later. During ischemia, body temperature was monitored by thermometer placed in the rectum and the body temperature was maintained at 37° C. by radiation heat from light bulb. […] Reperfusion of bilateral carotid arteries was assured by direct visual examination. The incision wound was closed.
Soon after the reperfusion of the carotid arteries began, the animal was placed on a stereotaxic instrument, the skull was exposed, and a small hole was made by a dental drill at anterior 0.6 lateral 1.5, vertical 5.0 mm from the bregma and skull surface, and guided cannula (Alza Corp., Palo Alto, Calif.) was inserted into the hole so that the tip of the cannula is in the lateral cerebroventricle and fixed on the skull by dental cement. The incised skin was then closed by suture. Then 10 μl of artificial cerebrospinal fluid (CSF) containing 0.1% bovine serum albumin (ESA) or the vehicle containing varying amounts of PACAP38 was introduced.
PACAP38 was icv infused into the right lateral cerebroventricle of rats having neuronal cell damage in the CA1 of the hippocampus as discussed in example 5. The effect of the icv infusion of PACAP38 on ischemia-induced neuronal cell death in the hippocampal CA1 in rats was measured.

[12] = target: T3, PACAP receptor (PACAP binding sites) in rat brain membrane preparations (rat, UniProt P32215 20-523); experiment: Scatchard analysis of displacement of 125I-PACAP27, E18 rat brain membranes; reference PACAP27
T3 construct: whole, on cells; Native receptor in crude brain membranes, not a recombinant protein; also called the receptor
T3 sequence (looked up): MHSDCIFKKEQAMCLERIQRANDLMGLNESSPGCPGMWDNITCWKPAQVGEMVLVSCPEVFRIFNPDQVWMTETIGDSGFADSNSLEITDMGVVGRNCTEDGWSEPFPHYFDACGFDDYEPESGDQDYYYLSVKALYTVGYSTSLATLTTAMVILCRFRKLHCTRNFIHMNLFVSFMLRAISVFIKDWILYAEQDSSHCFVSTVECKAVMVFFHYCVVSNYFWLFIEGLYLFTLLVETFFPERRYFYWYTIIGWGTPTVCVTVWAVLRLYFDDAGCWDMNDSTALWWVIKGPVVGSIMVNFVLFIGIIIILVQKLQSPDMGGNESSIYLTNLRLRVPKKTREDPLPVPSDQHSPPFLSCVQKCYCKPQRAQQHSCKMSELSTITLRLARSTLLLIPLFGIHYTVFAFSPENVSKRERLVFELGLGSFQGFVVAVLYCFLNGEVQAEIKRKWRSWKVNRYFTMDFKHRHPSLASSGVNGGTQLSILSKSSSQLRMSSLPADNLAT

GHRH: structurally related peptide used in binding competition
displacement of 125I-PACAP27 binding [1]: did not displace

glucagon: structurally related peptide used in binding competition
displacement of 125I-PACAP27 binding [1]: did not displace

secretin: structurally related peptide used in binding competition
displacement of 125I-PACAP27 binding [1]: did not displace

VIP: vasoactive intestinal peptide
effect on neuronal death in gp120-treated cultures ([2]; 0.1 nM): prevented neuronal death | effect on neuronal cell death associated with gp120 treatment ([2]; murine hippocampal cultures): potently and completely prevented | displacement of 125I-PACAP27 binding [1]: did not displace | potency in increasing cellular cAMP, times less potent than PACAP [3]: approximately 1000 times | potency in increasing cellular cAMP, times less potent than PACAP [4]: approximately 1000 times | affinity for Type I PACAP receptor, times less than that of PACAP (Type I PACAP receptor): 1000 times | binding to Type I PACAP receptor (Type I PACAP receptor): do not bind | cAMP response at the concentration that increases neuronal survival (CNS cultures, cAMP): no increases in cAMP

^125I-PACAP38
CPM in right hippocampus relative to left [5]: four times greater | radioactivity in left hippocampus [5]: 5 cpm per mg tissue | radioactivity in right hippocampus [5]: 20 cpm per mg tissue

PACAP[1-38]-NH2 [PACAP38]
effect on ischemia-induced neuronal cell death in CA1 (hippocampal CA1 neurons [6]; iv 16 pmol/hr over one week after 20 μg/kg iv bolus): attenuated neuronal cell death significantly | effect on ischemia-induced neuronal cell death in CA1 (hippocampal CA1 neurons [6]; iv 160 pmol/hr over one week after 20 μg/kg iv bolus): attenuated neuronal cell death significantly | number of degenerating cells less than in untreated embryos [7]: 37.2% | affinity for the receptor relative to PACAP27 (higher) [1]: about 10 fold | displacement of 125I-PACAP27 binding [1]: more effectively than did PACAP27 | increase in number of motoneurons per motor column ([8]; 5 nM in the egg daily E6 to E9, counted on E10): 7.2% | increase in number of motoneurons per motor column ([8]; 25 nM in the egg daily E6 to E9, counted on E10): 12.5% | effect on ischemia-induced neuronal cell death in CA1 (hippocampal CA1 neurons [9]; iv 16 pmol/hr): significantly (<0.01) attenuated brain cell death | effect on ischemia-induced neuronal cell death in CA1 (hippocampal CA1 neurons [9]; iv 160 pmol/hr): significantly (<0.01) attenuated brain cell death | lower peak of bimodal dose-response curve of cytoprotection [10]: 0.1 pM | upper peak of bimodal dose-response curve of cytoprotection [10]: 0.1 nM | most effective continuous icv infusion rate (hippocampal CA1 neurons [11]; after bolus 450 ng/10 μl H2O over 10 min, infusion over seven days, FIG. 12): 45 ng/µL/h | icv dose of maximum cytoprotective effect (bell-shaped dose-response) (hippocampal CA1 neurons [11]; icv infusion into right lateral cerebroventricle over one week, FIG. 16): 1 pmol/h | effect on ischemia-induced neuronal cell death in CA1 (hippocampal CA1 neurons [11]; icv infusion over one week, viable neurons 7 days after ischemia): significantly prevented the neuronal cell death | effect on ischemia-induced cell death in CA1 (histology) (hippocampal CA1 neurons [11]; icv osmotic pump 1 pmol/h over one week, started immediately after ischemia, 7 days): prevented ischemia-induced cell death in CA1 | most effective icv dose (hippocampal CA1 neurons [11]; icv over 7 days, 10, 1, 0.1 and 0.01 pmol/h tested, FIG. 14): 1 pmol/h

B1: Pituitary adenylate cyclase activating polypeptide, complete form with 38 amino acids (PACAP38) (peptide)
peptide: HSDGIFTDSYSRYRKQMAVKKYLAAVLGKRYKQRVKNK-NH2
notes: Synthetic peptide made by solid phase synthesis; also called PACAP[1-38]-NH2; unlabeled PACAP38
fold higher affinity than PACAP27 [12]: ~10 fold
